The values that follow are results of earlier work, collected in patent US20010037025A1, “New compounds, their preparation and use” (priority 1998, published 2001).

For this data set, the system named is RAR. Particulars: literature statement, Heyman et al. Cell 1992.

Turning to `CC1=C(/C=C/C(C)=C/C=C/C(C)=C/C(=O)O)C(C)(C)CCC1` [all-trans RA], the “activation of / selectivity for RAR” value was “displays selectivity for RAR”.
